Measurements: US20260286322A1, “PROTEIN TYROSINE P[…] DOMAIN PEPTIDE DIMER FOR NERVOUS SYSTEM REPAIR” (NervGen Pharma Corp., priority 2023, published 2026)

Columns and labels:
[1] = test system: rat model of thoracic traumatic Spinal Cord Injury (SCI); experiment: Basso, Beattie and Bresnahan (BBB) open-field locomotor rating scale in SCI rats; format: in vivo
Description: The goal of this study is to test the efficacy of a novel peptide dimer (Intracellular Sigma blocking peptide (ISP) dimer according to the present disclosure on behavioral changes in a rat model of thoracic traumatic Spinal Cord Injury (SCI).
(§1) Adult, female Lewis rats (~160 g on arrival) from Envigo were used as the subjects receiving the treatment in the study. The rats were assigned unique identification numbers (PGI ID and tail marks) and housed in ventilated cages. All rats were examined, handled, and weighed prior to initiation of the study to assure adequate health and suitability. During the course of the study, 12/12 light/dark cycles were maintained. The room temperature was maintained between […] and 23° C. with a relative humidity maintained around 50%. Chow and water were provided adlibitum for the duration of the study. The rats were randomly assigned across treatment groups. Body weights were taken twice a week during the study.
(§2) Lyophilized Compound 8 was dissolved in saline and injected s.c. at a volume of 500 μl to animal once daily from day 1-day 49 post spinal cord injury.
The dose concentration was 0.8 mg/ml, corresponding to 400 μg/rat. After reconstitutions, the solution was aliquoted and kept at −20° C. until dosing.
12-13 rats were used in each of the following two groups: • 1. Control group: SCI+Saline • 2. Testing group: SCI+Compound 8 in Saline.
Spinal cord injury (SCI) was introduced to the rats by surgery using the Infinite Horizon (IH) Impactor (200 kDyn force) described by Scheff et al. 2003. The surgery was performed with aseptic procedures in a designated area under deep anesthesia. Rats were anesthetized with isoflurane (4% for induction, 2% for maintenance), and O2 (300 cm^3/min) mixture. Hair was removed from the surgical site with clippers and the skin wase scrubbed with an antiseptic detergent. To maintain body temperature the animals were placed upon a homoeothermic blanket system. The T8 Vertebra of the rat was located externally, and an incision was made exposing the vertebral column from T6-T11. A laminectomy was performed using a surgical microscope to expose the dorsal spinal cord at the thoracic (T8) vertebral level. The vertebral column was stabilized by clamping the nearest rostral and caudal vertebral processes and the injury was produced using the IH impactor device at a 200 kDyn force. After each lesion the IH graphs and impact data were reviewed and recorded, rats presenting an impact force more than 10% higher or lower than expected and/or any abnormality on the force/displacement impact graphs were excluded from the study. Additionally, animals scoring more than 1 points in the Basso, Beattie and Bresnahan (BBB) score scale at 1 days after SCI were excluded for the study as well.
Locomotion changes were assessed using an open-field locomotor test (the Ohio State BBB Locomotor Rating Scale developed by Basso, et al. 1995). During each test, rats were observed moving around an empty wading pool for 4 minutes. Movements of joints in the hind limbs, weight support, and coordination between limbs were scored according to the BBB scale. This scale tracks the progressive recovery of hind-limb function following thoracic SCI. The scale can be divided into three parts reflecting the stages of recovery. […] BBB was assessed on days 1, 4 and 7 post injury and then weekly until completion of the study.
The BBB score scale obtained at day 1 after SCI was used to keep injury consistency. […] At Day 1 after SCI, only animals scoring either 0 (no observable hind-limb movement) or 1 (slight movement of one or two hind-limbs joins) in the BBB scale were enrolled in the study and allocated into treatment groups. The treatments groups were balanced using the BBB score obtained at day 1 after SCI.
Data was analyzed by analysis of variance (ANOVA) followed by post-hoc comparisons where appropriate. An effect was considered significant if p<0.05. […]

[2] = test system: animal model of spinal cord injury (SCI rats); experiment: Recovery of occasional and frequent walking, inverse Kaplan-Meier on BBB thresholds; format: in vivo, rat
Description: as §1
Spinal cord injury (SCI) was introduced to the animals and post-operative care was followed after the injury according to the methods described in Example 3.
as §2
The target dose concentration was 0.8 mg/ml. After reconstitutions, the solution was aliquoted and kept at −20° C. until dosing.
12-13 rats were used in each of the following two groups: • 1) Control group: SCI+Saline • 2) Testing group: SCI+Compound 8 in Saline.
Inverse Kaplan-Meier graphs were generated based on the Basso, Beattie & Bresnaham (BBB) open field locomotor assessment described above in Example 3. […]
Recover occasional walking: Occasional walking is defined as less than or equal to half of the attempted steps are successful, corresponding to a BBB score of 10. The week post-SCI in which an animal achieved a 10 or above was recorded and plotted on the Kaplan Meier graph, as defined above.
Recover frequent walking: Frequent walking is defined as greater than half of the attempted steps are successful and corresponds to a BBB score of 11. The week post-SCI in which an animal achieved an 11 or above was recorded and plotted on the Kaplan Meier graph, as defined above.
Statistical methods: Kaplan Meier curves were analyzed using the log-rank test. Effects of Compound 4 and Compound 8 on the locomotor function and bladder function were assessed for statistical significance by repeated measures ANOVA (RM-ANOVA) with Geisser-Greenhouse correction for non-sphericity of data and Tukey correction for multiple comparisons or by nonparametric Friedman's test with Dunn's multiple comparison correction. The choice of RM ANOVA or Friedman's test for the analysis of each type of data (BBB scores, BBB subscores, and bladder scores) was determined by the normality of data distribution tests performed for each of the functional scores across all treatment cohorts. […]

[3] = week 7 post-SCI, 13 rats in group

In the case of “TAT-Cys-rodent PTPRS wedge domain homodimer [Compound 8]”, the “locomotor performance measured with weekly average BBB scores vs saline alone” value ([1]; RM ANOVA, Tukey, p<0.0001 for each compound) is reported as “significant improvement”, the “improving the BBB scores, compared with Compound 4” value ([1]; RM ANOVA, Tukey, p=0.0017) is reported as “more efficacious” and the “recovery of movements of joints in the hind limbs, weight support, and coordination between limbs” value ([1]; SCI rats, vs saline) is reported as “promotes the recovery”. The “share of rats achieving BBB scores of 10 or above” value ([1]; after 70 days post SCI, group (3)) was “More than half”, the “number of rats having BBB scores of 6 to 7” value ([1]; day 7 post-SCI, 13 rats in group, 400 μg/rat s.c. once daily) was 6 rats and the “percentage of rats that achieved a BBB score of 11” value ([1]; day 77 post-SCI) was “more than 20%”. The “percentage of rats that achieved a BBB score of 11” value ([1]; day 84 post-SCI) was “about 50%”, the “maximum BBB score in the cohort” value ([1]; end of study) was 11 and the “number of rats with a BBB score of 10” value [1, 3] was 6 rats. For the same substance, the “number of rats with a BBB score of 11” value [1, 3] was 2 rats, the “rats with BBB scores of about 10 or 11” value ([1]; week 12 post-SCI) was 8 out of 13 and the “time at which recovery of frequent walking was first detected” value ([2]; post injury) was “after three weeks post injury”. For the same substance, the “time at which recovery of occasional walking reached 50%” value ([2]; post-SCI) was “less than 6 week”, the “recovery of frequent walking (BBB score of 11 or above), accumulated percent of group” value ([2]; week 12 post-SCI) was about 50% and the “recovery of occasional walking (BBB score of 10 or above), accumulated percent of group” value ([2]; week 12 post-SCI, 0.8 mg/ml, 500 μl s.c. once daily day 1-49) was about 80%.
